Measurements published in the CATMoS acute toxicity set (Mansouri et al. 2021).

test: GHS categories as the set defines them, by LD50: 1 up to 5, 2 up to 50, 3 up to 300, 4 up to 2000, 5 above 2000 mg/kg; conditions: rat; in vivo; po
Source text: […]The data set underlying the modeling effort for this project was initially compiled by NICEATM and U.S. EPA’s CCTE. Briefly, LD50 data were collected from rat acute oral systemic toxicity tests, including limit tests, ranges/confidence intervals, and discrete LD50 values. The full data set included 21,200 LD50 entries for 15,688 substances. […] Data were reviewed to ensure that LD50 values with obvious errors in the extracted data such as unit conversion errors (e.g., comma and decimal separator misplacements) were either fixed or removed. After this review, 16,209 LD50 values remained. Many of the chemicals represented had multiple LD50 entries, requiring that a single representative value per Chemical Abstracts Service Registry Number (CASRN) identifier be defined to facilitate modeling efforts. Based on ATWG feedback and to define the representative LD50 as a protective value while accounting for the distribution across multiple LD50s, the median of the lowest quartile was computed using only discrete LD50 values (omitting limit test data and range and confidence interval data). A detailed summary of the data compilation is available online on the NICEATM webpage dedicated to the collaborative modeling project (NTP 2020).
[…][…] For categorical designations, limit test and range/confidence interval LD50 data were integrated wherever possible. As such, the number of chemicals with end point values/calls varies across the modeling end points (Table 3) based on whether chemicals had representative LD50 values and/or other data. If a chemical had both, the representative value was used to determine categorical calls rather than limit test data. Some data were useable only for certain end points and categories depending on the thresholds. For example, ranges that spanned multiple hazard categories were considered only for the binary (very toxic/nontoxic) end points and omitted from rendering a determination for hazard category assignment.
[…]The final data set comprising 11,992 chemicals was split into training and evaluation sets […], respectively. This process was performed semirandomly by ordering chemicals based on the five end points (categorical and continuous LD50 values) and partitioning every fourth record into the evaluation set accordingly. This approach was taken to ensure an equivalent distribution of the LD50 values and the different hazard categories between the training and the evaluation sets without supervised sampling of the chemicals based on structures (Figure 1A). The sources of the chemical structures were also kept equivalent between the two sets, with chemical structures obtained from DSSTox, being the highest quality, representing over 75% of each set (Figure 1B).

Row | SMILES | GHS category
1 | CC1(C)S[C@@H]2[C@H](NC(=O)C(C(=O)O)c3ccccc3)C(=O)N2[C@H]1C(=O)O (stereo partly specified) | 5
2 | S=P(Oc1ccccc1)(Oc1ccccc1)Oc1ccccc1 | 5
3 | C/C=C(\C)C(=O)OCCc1ccccc1 | 5
4 | O=C1NC(=O)C(c2ccc(O)cc2)(c2cccs2)N1 (stereo unspecified) | 5
5 | NS(=O)(=O)C(F)(F)C(F)(F)C(F)(F)C(F)(F)C(F)(F)C(F)(F)C(F)(F)C(F)(F)F | 3
6 | CCN(CCCSc1nnnn1C)C(=O)C1CCCC1 | 4
7 | C[C@@H]1CCN(C(=O)[C@H](CCCNC(=N)N)NS(=O)(=O)c2cccc3c2NC[C@H](C)C3)[C@@H](C(=O)O)C1 | 5
8 | CCCc1c(Cc2ccc(-c3ccccc3-c3nn[nH]n3)cc2)c(N)nc2ncnn12 | 4
9 | CC(CO)CCCC1CCCCC1 (stereo unspecified) | 5
10 | Cc1nc(NS(=O)(=O)c2ccc(N)cc2)oc1C | 5
11 | CCCCCCCC/C=C\CCCCCCCC(=O)N(C)CC(=O)O | 5
12 | O=C1C=C2C=C[C@@H]3C[C@@]2(O1)[C@H]1CCCCN31 | 4
13 | O=C(O)CCC(=O)OC1N=C(c2ccccc2)c2cc(Cl)ccc2NC1=O (stereo unspecified) | 5
14 | CCCC(=O)OC[C@@H](OC(=O)CCC)[C@@H](OC(=O)CCC)[C@H](Cn1c2nc(=O)[nH]c(=O)c-2nc2cc(C)c(C)cc21)OC(=O)CCC | 5
15 | CCOc1ccc(NC(=O)c2cc3ccccc3cc2O)cc1 | 5
16 | CCOC(=O)CP(=O)(OCC)OCC | 5
17 | OCC(O)COC1CCCCC1 (stereo unspecified) | 5
18 | O=C(c1ccc(Cl)cc1)c1ccc2[nH]c(=O)oc2c1 | 5
19 | CC(C)(C)OOC(C)(C)c1ccc(C(C)(C)OOC(C)(C)C)cc1 | 5
20 | COc1ccc2c(c1)CCN(c1ccccc1)C2c1cccc(Cl)c1 (stereo unspecified) | 4
21 | O=C(O)c1ccc(OCCn2ccnc2)cc1 | 4
22 | CCCCOC(=O)c1ccc(-n2nc(OCCN(C)C)c3ccccc32)cc1 | 4
23 | CN(C)[C@@H]1C(O)=C(C(N)=O)C(=O)[C@@]2(O)C(O)=C3C(=O)c4c(O)ccc(Cl)c4[C@@H](O)[C@H]3C[C@@H]12 | 5

Row | SMILES | GHS category
24 | Clc1cc(Cl)ncn1 | 3
25 | NC(=O)CC1(CC(=O)O)CCCCC1 | 5
26 | CC1CC(OC(=O)C(C)(C)Oc2ccc(Cl)cc2)CC(C)(C)C1 (stereo unspecified) | 5
27 | CCCC=CCC1CCCC1=O (stereo unspecified) | 5
28 | Brc1c(Br)c(Br)c(OCCOc2c(Br)c(Br)c(Br)c(Br)c2Br)c(Br)c1Br | 5
29 | CO[Si](CCCCl)(OC)OC | 5
30 | CC(C)CCC[C@@H](C)[C@H]1CC[C@H]2[C@@H]3CC=C4C[C@@H](O)CC[C@]4(C)[C@H]3CC[C@]12C | 5
31 | CCCCCCCCCCCCCCCC(=O)OCC(CC)CCCC (stereo unspecified) | 5
32 | CC(C)(CO)c1cc(Cl)nnc1Cl | 4
33 | CCCCCCCCCCCCBr | 5
34 | c1ccc(OCCOc2ccccc2)cc1 | 5
35 | CC(C)C(N)C(=O)OCc1ccccc1 (stereo unspecified) | 5
36 | CCCCOC(=O)CC(C)C | 5
37 | FC(F)(F)C(F)(F)C(F)(F)C(F)(F)C(F)(F)C(F)(F)F | 5
38 | C[C@H]1C[C@@H]2[C@H]([C@@H](O)C[C@@]3(C)[C@H]2CC[C@]3(O)C(=O)COC(=O)CCC(=O)O)[C@@]2(C)C=CC(=O)C=C12 | 5
39 | CCN(CC)CCc1nc(-c2cccc(O)c2)no1 | 5
40 | COc1ccccc1OC(=O)c1ccccc1Nc1cccc(C)c1C | 5
41 | Cc1c(Cl)ccc(O)c1Cl | 5
42 | CCCCCCCCOC(=O)c1ccc(C(=O)OCCCCCCCC)cc1 | 5
43 | CC1OC(OC2C(OC(=O)C=Cc3ccc(O)c(O)c3)C(CO)OC3OCC(c4ccc(O)c(O)c4)OC32)C(O)C(O)C1O (stereo unspecified) | 5
44 | C/C=C\[C@@H]1[C@@H](C(=O)OCc2c(F)c(F)c(COC)c(F)c2F)C1(C)C | 5
45 | CC[C@H](c1ccc(O)cc1)[C@@H](CC)c1ccc(O)cc1 | 5
46 | CCC(COC(=O)c1ccccc1C(=O)OCC(CC)CC(C)C)CC(C)C (stereo unspecified) | 5

Row | SMILES | GHS category
47 | CCCC(=O)OC(C)(C)Cc1ccccc1 | 5
48 | Nc1ccc(C2(c3ccc(N)c(Cl)c3)c3ccccc3-c3ccccc32)cc1Cl | 5
49 | CC1CC2(CC(C)OC2=O)C(=O)O1 (stereo unspecified) | 5
50 | CCCCCCOC(=O)CCCCC(=O)OCCCCCC | 5
51 | CC(CO)C1CCCCCCCCCCC1 (stereo unspecified) | 5
52 | FC(F)(F)c1nc(NC2CC2)c2ncn(CC3CC3)c2n1 | 3
53 | CCCCCCCCCCCCCCCCCCCCO | 5
54 | CC(C)CCC[C@@H](C)[C@H]1CC[C@H]2[C@@H]3CC[C@H]4C[C@H](O)CC[C@]4(C)[C@H]3CC[C@]12C | 4
55 | CCOc1nc2cccc(C(=O)OC(C)OC(=O)OC3CCCCC3)c2n1Cc1ccc(-c2ccccc2-c2nnn[nH]2)cc1 (stereo unspecified) | 5
56 | CCCS(=O)(=O)Nc1ccc(F)c(C(=O)c2cn(C(=O)c3c(Cl)cccc3Cl)c3ncc(-c4ccc(Cl)cc4)cc23)c1F | 5
57 | O=C1CC(Nc2ccc(Cl)cc2Cl)=NN1c1c(Cl)cc(Cl)cc1Cl | 5
58 | CCCCOC(=O)CCC(C)=O | 5
59 | NC(=O)NCCO | 5
60 | COc1ccc(C2NC(=O)CCS2)cc1OC (stereo unspecified) | 5
61 | C[SiH]1O[SiH](C)O[SiH](C)O[SiH](C)O[SiH](C)O1 (stereo unspecified) | 5
62 | C=CC(=O)OCCCCOc1ccc(C(=O)Oc2ccc(OC(=O)c3ccc(OCCCCOC(=O)C=C)cc3)c(C)c2)cc1 | 5
63 | O=C(O)c1nc(C(Cl)(Cl)Cl)n(-c2ccc(Cl)cc2Cl)n1 | 5
64 | Cc1nn(-c2ccc3cc(-c4ccccc4)c(=O)oc3c2)nc1-c1ccccc1 | 5
65 | CC(CO)COC1CC2CCC1(C)C2(C)C (stereo unspecified) | 5
66 | CCOC(=O)/C(Cl)=C/c1cc(N2C(=O)C3=C(CCCC3)C2=O)ccc1Cl | 5
67 | CCOc1c(N)c2c(c(OCC)c1OCC)C(C1c3c(cc4c(c3OC)OCO4)CCN1C)OC2=O (stereo unspecified) | 5
68 | COc1nn(C(=O)NS(=O)(=O)c2ccccc2OC(F)(F)F)c(=O)n1C | 5
69 | O=C(Nc1cc(Cl)c(NC(=O)c2cc3ccccc3c(N=Nc3cc(Cl)ccc3Cl)c2O)cc1Cl)c1cc2ccccc2c(N=Nc2cc(Cl)ccc2Cl)c1O | 5

Row | SMILES | GHS category
70 | CC1(C)[C@H](C(=O)O[C@H](C#N)c2cccc(Oc3ccccc3)c2)[C@@H]1/C=C\C(=O)OC(C(F)(F)F)C(F)(F)F | 5
71 | O=C1c2ccc3c4ccc5c6c(ccc(c7ccc(c2c37)C(=O)N1CCc1ccccc1)c64)C(=O)N(CCc1ccccc1)C5=O | 5
72 | CCOC(=O)/C=C(C)/C=C/C=C(C)/C=C/c1c(C)cc(OC)c(C)c1C | 5
73 | CCOc1ccc(OC)cc1-c1nc(=O)c2cc(C(=O)O)ccc2[nH]1 | 4
74 | COC(=O)C(C)(C)C(=O)OC1=C(C(=O)Nc2ccccn2)N(C)S(=O)(=O)c2cc(Cl)sc21 | 2
75 | CNc1cccc(NC(=O)C(=O)O)c1C#N | 5
76 | C=CC(C)(O)CCC=C(C)CCC=C(C)C (stereo unspecified) | 5
77 | CO[C@@H]1[C@@H](O[C@@H]2O[C@H](C)[C@@H](O[C@H]3C[C@@](C)(O)[C@@H](O)[C@H](C)O3)[C@H](N(C)C)[C@H]2O)[C@@H](CC=O)C[C@@H](C)[C@@H](O[C@@H]2CC[C@H](N(C)C)[C@@H](C)O2)C=CC=CC[C@@H](C)OC(=O)C[C@H]1OC(C)=O | 5
78 | CC(=O)Nc1ccc(S(=O)(=O)Cl)cc1 | 5
79 | Cc1cc(C(=O)NCCc2ccc(S(=O)(=O)NC(=O)NN3CCCCCC3)cc2)no1 | 5
80 | Cc1ccc(C(=O)NS(=O)(=O)c2ccc(N)cc2)cc1C | 5
81 | CC(C)OC(=O)C(C)(C)Oc1ccc(C(=O)c2ccc(Cl)cc2)cc1 | 5
82 | CCCCCCCC/C=C\CCCCCCCC(=O)OCC | 5
83 | COc1c(Cl)ccc(B(O)O)c1F | 5
84 | CCN(CC)c1nc2ccccn2c(=O)c1C=NN1CCOC1=O | 3
85 | O=C1NC(=O)C(=c2[nH]c(=C3C(=O)NC(=O)NC3=O)c3ccccc23)C(=O)N1 | 5
86 | CO[C@]12CC[C@@]3(C[C@@H]1[C@](C)(O)C(C)(C)C)[C@H]1Cc4ccc(O)c5c4[C@@]3(CCN1CC1CC1)[C@H]2O5 | 4
87 | Fc1ccccc1C1c2cc3c(cc2CCN1c1ccccc1)OCO3 (stereo unspecified) | 4
88 | CC(=O)OCC1=C(C(=O)O)N2C(=O)[C@@H](N)[C@H]2SC1 | 5
89 | COC(=O)CC(N)=S | 4
90 | CC1N=C(c2ccccc2Cl)c2c(ccc(NC(=O)NCCO)c2Cl)N(C)C1=O (stereo unspecified) | 5
91 | NC[C@H]1O[C@H](O[C@H]2[C@H](O)[C@@H](O[C@H]3O[C@H](CO)[C@@H](O)[C@H](N)[C@H]3O)[C@H](N)C[C@@H]2N)[C@H](N)[C@@H](O)[C@@H]1O | 5
